Results as given in KR20230168537A, “유파틸린을 포함하는 대장암 예방 또는 치료용 약학적 조성물” (고려대학교 산학협력단, priority 2022, dated 2023).

Columns and labels:
Format in all cases: cell-based
cytochrome c = experiment: Western blot, apoptosis-related protein
BAK = experiment: Western blot, apoptosis-related protein
HT29 [1] = experiment: MTT cell viability assay
HCT116 [2] = experiment: MTT cell viability assay
HCT116 [3] = experiment: Mitochondrial membrane potential (JC-1); conditions: 48 h
P70S6K = experiment: Western blot, signalling protein phosphorylation; conditions: HCT116 and HT29 cells
P38 = experiment: Western blot, signalling protein phosphorylation; conditions: HCT116 and HT29 cells
GRP78 = experiment: Western blot, ER stress-related protein; conditions: HCT116
LC3BⅡ = experiment: Western blot, autophagy-related protein
BCL-xL = experiment: Western blot, apoptosis-related protein; conditions: colorectal cancer cells, 24 h
HT29 [4] = experiment: Transwell invasion assay; conditions: Homo sapiens, HT-29; HT29, 50 μM, 16 h; read-out: reduction in number of cells passing through Transwell
[5] = system: colorectal cancer cells (대장암세포); experiment: Cell cycle analysis (PI, flow cytometry); conditions: 100 μM, 48 h
HCT116 [6] = experiment: BrdU cell proliferation assay; conditions: Homo sapiens, HCT-116; HCT116, 25 μM or more, 48 h; read-out: reduction of cell proliferation
P90RSK = experiment: Western blot, signalling protein phosphorylation; conditions: HCT116 and HT29 cells
HT29 [7] = experiment: Cell migration assay; conditions: HT29, 24 h
P62 = experiment: Western blot, autophagy-related protein; conditions: HT29
HCT116 [8] = experiment: Annexin V/PI apoptosis assay; conditions: Homo sapiens, HCT-116, 48 h, read-out: increase in apoptosis versus control
HT29 [9] = experiment: ROS production (DCFH-DA)
AKT = experiment: Western blot, signalling protein phosphorylation; conditions: HCT116 and HT29 cells
HCT116 [10] = experiment: Cell migration assay; conditions: HCT116, 24 h
JNK = experiment: Western blot, signalling protein phosphorylation; conditions: HCT116 and HT29 cells
HCT116 [11] = experiment: Spheroid culture (hanging drop); conditions: HCT116, dose-dependent
ATG5 = experiment: Western blot, autophagy-related protein; conditions: HT29
S6 = experiment: Western blot, signalling protein phosphorylation; conditions: HCT116 and HT29 cells
eIF2α = experiment: Western blot, ER stress-related protein; conditions: HCT116
ERK = experiment: Western blot, signalling protein phosphorylation; conditions: HCT116 and HT29 cells
IRE1α = experiment: Western blot, ER stress-related protein
HCT116 [12] = experiment: ROS production (DCFH-DA)
HT29 [13] = experiment: Spheroid culture (hanging drop); conditions: HT29, 50 μM
HCT116 [14] = experiment: Transwell invasion assay; conditions: Homo sapiens, HCT-116; HCT116, 50 μM, 16 h; read-out: reduction in number of cells passing through Transwell
HT29 [15] = experiment: Mitochondrial membrane potential (JC-1); conditions: HT29, 100 μM, 48 h
HT29 [16] = experiment: BrdU cell proliferation assay; conditions: Homo sapiens, HT-29; HT29, 50 μM or more, 48 h; read-out: reduction of cell proliferation
HT29 [17] = experiment: TUNEL assay, DNA fragmentation; conditions: HT29, 48 h
HCT116 [18] = experiment: TUNEL assay, DNA fragmentation; conditions: HCT116, 48 h
HT29 [19] = experiment: Annexin V/PI apoptosis assay; conditions: Homo sapiens, HT-29, 48 h, read-out: increase in apoptosis versus control

## O=c1[nH]cc(F)c(=O)[nH]1 [5-FU, 5-fluorouracil]
Cytochrome c; 5-FU-resistant HCT116
  cytochrome c expression: 발현에는 영향을 미치지 못한
BAK; 5-FU-resistant HCT116
  BAK expression: 발현에는 영향을 미치지 못한
HT29 [1]; HT29, anticancer drug 5 μM alone
  cell viability: 69.0%
HT29 [1]; HT29, anticancer drug 10 μM alone
  cell viability: 64.1%
HT29 [1]; HT29, anticancer drug 20 μM alone
  cell viability: 56.5%
HT29 [1]; HT29, anticancer drug 40 μM alone
  cell viability: 50.9%
HCT116 [2]; HCT116, anticancer drug 5 μM alone
  cell viability: 74.2%
HCT116 [2]; HCT116, anticancer drug 10 μM alone
  cell viability: 71.6%
HCT116 [2]; HCT116, anticancer drug 20 μM alone
  cell viability: 66.2%
HCT116 [2]; HCT116, anticancer drug 40 μM alone
  cell viability: 55.4%

## CCc1c2c(nc3ccc(OC(=O)N4CCC(N5CCCCC5)CC4)cc13)-c1cc3c(c(=O)n1C2)COC(=O)[C@]3(O)CC [Irinotecan]
HT29 [1]; human, ht29 cells, 5 µM
  cell viability: 81.4%
HT29 [1]; human, ht29 cells, 10 µM
  cell viability: 60.9%
HT29 [1]; human, ht29 cells, 20 µM
  cell viability: 50.1%
HT29 [1]; human, ht29 cells, 40 µM
  cell viability: 30.1%
HCT116 [2]; human, hct116 cells, 5 µM
  cell viability: 66.6%
HCT116 [2]; human, hct116 cells, 10 µM
  cell viability: 52.0%
HCT116 [2]; human, hct116 cells, 20 µM
  cell viability: 43.9%
HCT116 [2]; human, hct116 cells, 40 µM
  cell viability: 28.9%

## COc1ccc(-c2cc(=O)c3c(O)c(OC)c(O)cc3o2)cc1OC [유파틸린, 5,7-Dihydroxy-3', 4', 6-trimethoxyflavone]
HCT116 [3]; HCT116, 50 μM
  decrease in mitochondrial membrane potential: 2.0 fold
HCT116 [3]; HCT116, 100 μM
  decrease in mitochondrial membrane potential: 2.6 fold
P70S6K
  P70S6K phosphorylation: 인산화를 억제
P38
  P38 phosphorylation: 인산화 역시 증가
GRP78
  GRP78 expression: 발현을 증가
LC3BⅡ; HCT116
  LC3BⅡ expression: 발현을 증가
LC3BⅡ; HT29
  LC3BⅡ expression: 발현을 증가
Cytochrome c; colorectal cancer cells, 24 h
  cytochrome c expression: 발현을 증가
BCL-xL
  BCL-xL expression: 발현을 저해
HT29 [4]
  inhibition at 50 µM: 42%
[5]
  proportion of S phase: S기의 비율을 감소
  proportion of SubG1 phase: 유의적으로 증가
HCT116 [6]
  inhibition at 25 µM: ≥ 50%
BAK; colorectal cancer cells, 24 h
  BAK expression: 발현을 증가
P90RSK
  P90RSK phosphorylation: 인산화를 유도
HT29 [7]
  cell migration: 세포 이주성을 현저하게 감소
P62
  P62 expression: 발현을 증가
HCT116 [8]; HCT116, 50 μM
  fold induction at 50 µM: 4.4
HCT116 [8]; HCT116, 100 μM
  fold induction at 100 µM: 13.2
HT29 [9]; HT29
  DCF fluorescence: 형광을 증가
HT29 [9]; Homo sapiens, HT-29, HT29, 50 μM, 1 h, read-out: increase in ROS production
  fold induction at 50 µM: 5.6
AKT
  AKT phosphorylation: 인산화를 억제
HCT116 [10]
  cell migration: 세포 이주성을 현저하게 감소
JNK
  JNK phosphorylation: 인산화 역시 증가
HCT116 [11]
  spheroid density: 용량의존적으로 스페로이드의 전체 면적 및 밀도를 감소
  spheroid total area: 용량의존적으로 스페로이드의 전체 면적 및 밀도를 감소
ATG5
  ATG5 expression: 발현을 증가
S6
  S6 phosphorylation: 인산화를 억제
eIF2α
  phosphorylated eIF2α expression: 발현을 증가
ERK
  ERK phosphorylation: 인산화를 유도
HT29 [1]; HT29, 100 μM or more
  reduction of cell viability: ≥ 50%
IRE1α; HCT116
  IRE1α expression: 발현을 증가
IRE1α; HT29, only IRE1 increased among the ER stress proteins
  IRE1 expression: IRE1의 발현만 증가
HCT116 [12]; HCT116
  DCF fluorescence: 형광을 증가
HCT116 [12]; Homo sapiens, HCT-116, HCT116, 50 μM, 1 h, read-out: increase in ROS production
  fold induction at 50 µM: 15.8
HT29 [13]
  spheroid density: 유의적으로 감소
HCT116 [14]
  inhibition at 50 µM: 97.2%
HT29 [15]
  decrease in mitochondrial membrane potential: 1.5 fold
HT29 [16]
  inhibition at 50 µM: ≥ 50%
HT29 [17]
  frequency of DNA fragmentation: DNA 단편화의 빈도를 증가
HCT116 [18]
  frequency of DNA fragmentation: DNA 단편화의 빈도를 증가
HCT116 [2]; HCT116, 25 μM or more
  reduction of cell viability: ≥ 50%
HT29 [19]; HT29, 50 μM
  fold induction at 50 µM: 1.6
HT29 [19]; HT29, 100 μM
  fold induction at 100 µM: 1.7
